Test results from patent publication US7135615B2, “Chromosome doubling method” (The Curators of the University of Missouri, priority 2001, dated 2006).
Marks after values point to notes of the source that are not given here.

Test system: maize Oh43 haploid seedlings
Test: nitrous oxide gas treatment at 3–8 leaf stages, Oh43 haploids (Example 3)
Settings: for Ear (open pollinated): No. of fertile sectors /ear / Ear (open pollinated): No. of kernels produced /ear / Ear (open pollinated): Plants with fertile sectors % / No. of tassel branch Average / Plant height (cm) Average / Tassel: No. of fertile anthers extruded/tassel / Tassel: No. of fertile sectors/tassel / Tassel: Plants with fertile sectors % / Ear (open pollinated): Plants with fertile sectors No. / Tassel: Plants with fertile sectors No. / No. of plants Survived: 600 kPa, 2 days
Text: Leaf stages were defined as follows, At the 3 leaf stage, there are three elongated leaves and the tip of the fourth leaf appears at the center of the leaf whorl. This stage is defined as V2 according to Ritchie et al. (1997). At the 8 leaf stage, there are 8 elongated leaves and the tip of the 9th and 10th leaves appear at the center of the leaf whorl (late V5 stage). At the 6 leaf stage, six elongated leaves are observable, and the tip of seventh leaf appears at the leaf whorl (late V4 or early V5 stage). Nine to sixteen haploid plants were treated at each stage using a large air tight iron chamber (FIG. 3). […] Moistened calcium hydroxide (50 g) wrapped in a paper towel was included to absorb carbon dioxide that is produced by the seedlings, as carbon dioxide at high concentration will injure the seedlings during the treatment. The soil of the pots was dried prior to treatment to prevent root injuries. […] The gas was introduced slowly into the chamber over a 10 minutes time frame.
After the treatment, seedlings were transplanted into larger pots, and grown in a greenhouse. A relatively cool temperature (below 25° C.) was maintained to permit the appropriate development of doubled sectors. At flowering, the ears were cross pollinated by an appropriate pollen source to reveal all the fertile sectors on the ears. On the treated plants, plant height (cm), tassel size (cm), number of tassel branches, ear length (cm), the number of fertile sectors on a tassel and an ear, the number of anthers on a tassel, and the number of kernels on an ear were recorded.
Analyses of variance and Duncan's Multiple Range Tests were performed to determine the effects of treatments on the plant height (cm), tassel size (cm), and ear length (cm). Chi square tests were used to determine the effects of treatments upon the proportion of plants that developed fertile tassel and ear sectors. The ratios of untreated plants with fertile sectors were used to estimate the significance of the ratio of treated plants with fertile sectors.
Nonparametric tests were performed to compare the distributions. The primary test was the Kruskal-Wallis test. In the initial tests, the null hypothesis considered was that the distributions would be the same for each treatment and control. If the null hypothesis was rejected (P<0.05), then pair wise comparisons of each treatment to the control using Dunn's method were conducted. The tassel branch number was low incidence count data and was analyzed using the same nonparametric tests mentioned above.

[N-]=[N+]=O [nitrous oxide gas, nitrous oxide]
Ear (open pollinated): No. of fertile sectors /ear (3 leaf stage): 0.7 /ear
Ear (open pollinated): No. of kernels produced /ear (3 leaf stage): 0.5 /ear
Ear (open pollinated): Plants with fertile sectors % (3 leaf stage): 33%
No. of tassel branch Average (3 leaf stage): 3.8**
Plant height (cm) Average (3 leaf stage): 106 a cm
Tassel: No. of fertile anthers extruded/tassel (3 leaf stage): 0.0 /tassel
Tassel: No. of fertile sectors/tassel (3 leaf stage): 0.0 /tassel
Tassel: Plants with fertile sectors % (3 leaf stage): 0%
Ear (open pollinated): Plants with fertile sectors No. (3 leaf stage, 12 examined): 4
Tassel: Plants with fertile sectors No. (3 leaf stage, 12 examined): 0
No. of plants Survived (3 leaf stage, 12 treated): 12
effect for increasing the fertile sectors on either tassels and ears (3–4 leaf stage): no effect
number of anthers /tassel, span over treatments (3–8 leaf stage treatments): 0–19.7 /tassel
number of kernels on the ears, span over treatments (3–8 leaf stage treatments): 0.5–18.6
Ear (open pollinated): No. of fertile sectors /ear (4 leaf stage): 0.8 /ear
Ear (open pollinated): No. of kernels produced /ear (4 leaf stage): 0.8 /ear
Ear (open pollinated): Plants with fertile sectors % (4 leaf stage): 46%
No. of tassel branch Average (4 leaf stage): 4.4**
Plant height (cm) Average (4 leaf stage): 121 b cm
Tassel: No. of fertile anthers extruded/tassel (4 leaf stage): 1.5 /tassel
Tassel: No. of fertile sectors/tassel (4 leaf stage): 0.3 /tassel
Tassel: Plants with fertile sectors % (4 leaf stage): 23%
Ear (open pollinated): Plants with fertile sectors No. (4 leaf stage, 13 examined): 6
Tassel: Plants with fertile sectors No. (4 leaf stage, 13 examined): 3
No. of plants Survived (4 leaf stage, 13 treated): 13
Ear (open pollinated): No. of fertile sectors /ear (5 leaf stage): 1.4 /ear
Ear (open pollinated): No. of kernels produced /ear (5 leaf stage): 1.8 /ear
Ear (open pollinated): Plants with fertile sectors % (5 leaf stage): 46%
No. of tassel branch Average (5 leaf stage): 2.9**
Plant height (cm) Average (5 leaf stage): 124 b cm
Tassel: No. of fertile anthers extruded/tassel (5 leaf stage): 19.7 /tassel
Tassel: No. of fertile sectors/tassel (5 leaf stage): 1.2* /tassel
Tassel: Plants with fertile sectors % (5 leaf stage): 54** %
Ear (open pollinated): Plants with fertile sectors No. (5 leaf stage, 13 examined): 6
Tassel: Plants with fertile sectors No. (5 leaf stage, 13 examined): 7
Ear (open pollinated): No. of fertile sectors /ear (6 leaf stage): 1.5 /ear
Ear (open pollinated): No. of kernels produced /ear (6 leaf stage): 18.6 /ear
Ear (open pollinated): Plants with fertile sectors % (6 leaf stage): 67%
No. of tassel branch Average (6 leaf stage): 5.7
Plant height (cm) Average (6 leaf stage): 119 b cm
Tassel: No. of fertile anthers extruded/tassel (6 leaf stage): 5.3 /tassel
Tassel: No. of fertile sectors/tassel (6 leaf stage): 1.8** /tassel
Tassel: Plants with fertile sectors % (6 leaf stage): 100%
Ear (open pollinated): Plants with fertile sectors No. (6 leaf stage, 12 examined): 8
Tassel: Plants with fertile sectors No. (6 leaf stage, 12 examined): 12
No. of plants Survived (6 leaf stage, 16 treated): 12
Ear (open pollinated): No. of fertile sectors /ear (7 leaf stage): 0.8 /ear
Ear (open pollinated): No. of kernels produced /ear (7 leaf stage): 1.1 /ear
Ear (open pollinated): Plants with fertile sectors % (7 leaf stage): 46%
No. of tassel branch Average (7 leaf stage): 5.0*
Plant height (cm) Average (7 leaf stage): 122 b cm
Tassel: No. of fertile anthers extruded/tassel (7 leaf stage): 5.8** /tassel
Tassel: No. of fertile sectors/tassel (7 leaf stage): 2.1** /tassel
Tassel: Plants with fertile sectors % (7 leaf stage): 69** %
Ear (open pollinated): Plants with fertile sectors No. (7 leaf stage, 13 examined): 6
Tassel: Plants with fertile sectors No. (7 leaf stage, 13 examined): 9
No. of plants Survived (7 leaf stage, 16 treated): 13
Ear (open pollinated): No. of fertile sectors /ear (8 leaf stage): 1.0 /ear
